{
  "source": "ChEMBL document CHEMBL4393743",
  "about": "“Anti-tumor activity evaluation of novel tubulin and HDAC dual-targeting inhibitors” (Bioorg Med Chem Lett, 2019)",
  "key": {"A549 [1]": {"test_system": "A549", "assay": "Induction of cell cycle arrest in human A549 cells assessed as accumulation at S phase at 10 uM incubated for 36 hrs by propidium iodide staining based flow cytometry (reference value: 16.66%)", "format": "functional"}, "MGC-803": {"test_system": "MGC-803", "assay": "Antiproliferative activity against human MGC803 cells assessed as cell growth inhibition incubated for 72 hrs by MTT assay", "format": "functional, cell-based", "conditions": "MGC-803, 72 h"}, "[2]": {"target": "Histone deacetylase (Homo sapiens) (UniProt Q13547+O15379+Q9UBN7+Q92769+Q9UQL6+Q8WUI4+Q9BY41+Q96DB2+P56524+Q9UKV0+Q969S8)", "conditions": "HeLa, at 1 µM", "description": "Inhibition of HDAC in human HeLa cell nuclear extracts at 1 uM"}, "A549 [3]": {"test_system": "A549", "assay": "Antiproliferative activity against human A549 cells assessed as cell growth inhibition incubated for 72 hrs by MTT assay", "format": "functional, cell-based", "conditions": "A549, 72 h"}, "HCT-116": {"test_system": "HCT-116", "assay": "Antiproliferative activity against human HCT116 cells assessed as cell growth inhibition incubated for 72 hrs by MTT assay", "format": "functional, cell-based", "conditions": "HCT-116, 72 h"}, "Tubulin": {"target": "Tubulin", "assay": "Inhibition of tubulin polymerization (unknown origin) by spectrophotometric method", "format": "protein-complex assay, Homo sapiens"}, "MCF7": {"test_system": "MCF7", "assay": "Antiproliferative activity against human MCF7 cells assessed as cell growth inhibition incubated for 72 hrs by MTT assay", "format": "functional, cell-based", "conditions": "MCF7, 72 h"}, "A549 [4]": {"test_system": "A549", "assay": "Induction of apoptosis in human A549 cells assessed as early apoptotic cells at 0.3 uM incubated for 72 hrs by Annexin V-FITC/propidium iodide-staining based flow cytometric analysis (reference value: 1.8%)", "format": "functional"}, "A549 [5]": {"test_system": "A549", "assay": "Induction of cell cycle arrest in human A549 cells assessed as accumulation at S phase at 0.1 uM incubated for 36 hrs by propidium iodide staining based flow cytometry (reference value: 16.66%)", "format": "functional"}, "A549 [6]": {"test_system": "A549", "assay": "Induction of apoptosis in human A549 cells assessed as early apoptotic cells at 0.1 uM incubated for 72 hrs by Annexin V-FITC/propidium iodide-staining based flow cytometric analysis (reference value: 1.8%)", "format": "functional"}, "A549 [7]": {"test_system": "A549", "assay": "Induction of cell cycle arrest in human A549 cells assessed as accumulation at G2/M phase at 3 uM incubated for 36 hrs by propidium iodide staining based flow cytometry (reference value: 10.83%)", "format": "functional"}, "A549 [8]": {"test_system": "A549", "assay": "Induction of cell cycle arrest in human A549 cells assessed as accumulation at G2/M phase at 1 uM incubated for 36 hrs by propidium iodide staining based flow cytometry (reference value: 10.83%)", "format": "functional"}, "A549 [9]": {"test_system": "A549", "assay": "Induction of apoptosis in human A549 cells assessed as necrotic cells at 0.3 uM incubated for 72 hrs by Annexin V-FITC/propidium iodide-staining based flow cytometric analysis (reference value: 2.76%)", "format": "functional"}, "BGC-823": {"test_system": "BGC-823", "assay": "Antiproliferative activity against human BGC823 cells assessed as cell growth inhibition incubated for 72 hrs by MTT assay", "format": "functional, cell-based", "conditions": "BGC-823, 72 h"}, "Histone deacetylase 8": {"target": "T1, Histone deacetylase 8 (Homo sapiens, UniProt Q9BY41)", "T1 sequence (Q9BY41 whole entry)": "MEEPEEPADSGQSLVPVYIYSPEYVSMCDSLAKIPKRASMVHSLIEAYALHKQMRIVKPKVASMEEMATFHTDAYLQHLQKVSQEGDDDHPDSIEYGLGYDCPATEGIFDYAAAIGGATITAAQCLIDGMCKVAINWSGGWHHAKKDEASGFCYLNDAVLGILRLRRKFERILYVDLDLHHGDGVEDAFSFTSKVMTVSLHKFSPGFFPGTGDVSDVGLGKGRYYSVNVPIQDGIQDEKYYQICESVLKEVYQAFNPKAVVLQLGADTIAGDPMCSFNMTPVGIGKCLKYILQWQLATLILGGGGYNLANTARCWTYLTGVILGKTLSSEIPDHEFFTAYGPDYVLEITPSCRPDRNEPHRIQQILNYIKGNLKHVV", "assay": "Inhibition of HDAC8 (unknown origin) using Boc-Lys(Ac)-AMC as substrate incubated for 60 mins by fluorescence assay"}, "A549 [10]": {"test_system": "A549", "assay": "Induction of apoptosis in human A549 cells assessed as late apoptotic cells at 1 uM incubated for 72 hrs by Annexin V-FITC/propidium iodide-staining based flow cytometric analysis (reference value: 5.69%)", "format": "functional"}, "A549 [11]": {"test_system": "A549", "assay": "Induction of cell cycle arrest in human A549 cells assessed as accumulation at G0/G1 phase at 1 uM incubated for 36 hrs by propidium iodide staining based flow cytometry (reference value: 72.51%)", "format": "functional"}, "A549 [12]": {"test_system": "A549", "assay": "Induction of apoptosis in human A549 cells assessed as necrotic cells at 10 uM incubated for 72 hrs by Annexin V-FITC/propidium iodide-staining based flow cytometric analysis (reference value: 2.76%)", "format": "functional"}},
  "data": [
    {"compound": "COc1ccc(/C=C(\\C)C(=O)c2cc(OC)c(OC)c(OC)c2)cc1OCCCC(=O)NO", "values": [
      {"measurement": "Activity", "setting": "A549 [1]", "result": 16.55, "unit": "%"},
      {"measurement": "IC50", "setting": "MGC-803", "result": 3.66, "unit": "µM"},
      {"measurement": "inhibition", "setting": "[2]", "result": 19.9, "unit": "%"},
      {"measurement": "IC50", "setting": "A549 [3]", "result": 0.55, "unit": "µM"},
      {"measurement": "IC50", "setting": "HCT-116", "result": 7.46, "unit": "µM"},
      {"measurement": "IC50", "setting": "Tubulin", "result": 54.5, "unit": "µM"},
      {"measurement": "IC50", "setting": "MCF7", "result": 7.33, "unit": "µM"},
      {"measurement": "Activity", "setting": "A549 [4]", "result": 7.73, "unit": "%"},
      {"measurement": "Activity", "setting": "A549 [5]", "result": 22.09, "unit": "%"},
      {"measurement": "Activity", "setting": "A549 [6]", "result": 4.25, "unit": "%"},
      {"measurement": "Activity", "setting": "A549 [7]", "result": 80.69, "unit": "%"},
      {"measurement": "Activity", "setting": "A549 [8]", "result": 62.89, "unit": "%"},
      {"measurement": "Activity", "setting": "A549 [9]", "result": 2.19, "unit": "%"},
      {"measurement": "IC50", "setting": "BGC-823", "result": 2.4, "unit": "µM"},
      {"measurement": "IC50", "setting": "Histone deacetylase 8", "result": 1.7, "unit": "µM"},
      {"measurement": "Activity", "setting": "A549 [10]", "result": 26.4, "unit": "%"},
      {"measurement": "Activity", "setting": "A549 [11]", "result": 16.57, "unit": "%"},
      {"measurement": "Activity", "setting": "A549 [12]", "result": 8, "unit": "%"}
    ]}
  ]
}
